Measured values published in patent US20250008983A1, “COMPOSITIONS CONTAINING PEROXYACIDS TO CONTROL PATHOGEN GROWTH IN ANIMAL FEED AND RELATED METHODS” (KEMIN INDUSTRIES, INC., priority 2023, published 2025).
Read-outs that look alike come from different tables or passages of the source.

Test system: Enterobacteriaceae
Format: cell-based
Description: Materials and Method. Naturally contaminated layer feed was collected, ground, and mixed well prior to weighing. The ground feed was weighed and separated into 15 different bags, each containing 300 g. The product/prototype was accurately weighed at the needed dosage and adjusted to a total volume of 5 mL prior to adding into the 300 g of feed with a syringe and needle. Product/prototype was added in batches (i.e., 2, 2, and 1 mL separately) and mixed after each addition. Five mL of sterile water was added into the feed and served as the control. The treated feed samples were homogenized after treatment and kept at 25° C. until the day of enumeration.
TEC of the 15 samples were studied over a period of 22 days with enumeration interval at time points 0, 1 and 22 days. The effect of peroxy acid was neutralized at each time point prior to enumeration. At each time point, 20 mL of 0.1 M sodium thiosulphate was added into 10 g of each treated feed sample in a sterile bag. The mixture was mixed well and left to stand for 10 minutes. After 10 minutes, 70 mL of BPW was added to achieve 10^−1 dilution. The feed suspension was homogenously mixed and left to stand for 30 minutes. Subsequently, the feed suspension was serial diluted to appropriate dilutions for enumeration. 100 uL of the diluted samples were plated onto Violet Red Bile Glucose (VRBG; CM0485 from Oxoid) agar, prepared as per recommended by the supplier. An aliquot of 0.1 mL of the feed suspension was plated onto the agar at each dilution and incubated at 37° C. for 18-24 hours prior to enumeration. Plating was carried out in triplicates. If low TEC is expected, the sample size is increased to 1 mL by plating 300, 300 and 400 uL onto three plates in triplicates for lower detection limit (10 CFU/g). The diluted feed samples (at 10^−1 dilution factor) were kept at 37° C. for 18-24 hours for enrichment prior to streaking. A loopful of diluted feed suspension was streaked onto the VRBG agar and incubated at 37° C. for 18-24 hours to determine qualitatively the presence of Enterobacteriaceae for samples with undetectable TEC.

CCC(=O)OO [Perpropionic acid, perpropionic acid]
TEC (2.5 kg/ton, post treatment Day 1): 2.41 log CFU/g
TEC (2.5 kg/ton, post treatment Day 22): <1.00 log CFU/g
TEC (2.5 kg/ton, pre-treatment Day 0): 2.12 log CFU/g
TEC (5.0 kg/ton, post treatment Day 1): 2.47 log CFU/g
TEC (5.0 kg/ton, post treatment Day 22): 1.73 log CFU/g
TEC (5.0 kg/ton, pre-treatment Day 0): <2.00 log CFU/g
TEC (10.0 kg/ton, post treatment Day 1): 2.19 log CFU/g
TEC (10.0 kg/ton, post treatment Day 22): <1.00 log CFU/g
TEC (10.0 kg/ton, pre-treatment Day 0): <2.00 log CFU/g
